Results reported in ChEMBL document CHEMBL4385608, “5-Aryl-1,3,4-oxadiazol-2-ylthioalkanoic Acids: A Highly Potent New Class of Inhibitors of Rho/Myocardin-Related Transcription Factor (MRTF)/Serum Response Factor (SRF)-Mediated Gene Transcription as Potential Antifibrotic Agents for Scleroderma” (J Med Chem, 2019).
Values after ≈ are worked out from the molar mass of the structure shown. Active and inactive are the calls of the source. The rule behind the calls is not given here.

How the values were obtained:
[1] = Inhibition of Rho/MRTF/SRF pathway (unknown origin) expressed in human PC3 cells assessed as reduction in Galpha12 Q231L-stimulated MRTF-selective SRE.L promoter-driven luciferase activity after overnight incubation by luminescence assay; format: cell-based
[2] = system: HEK-293T; experiment: Cytotoxicity against HEK293T cells assessed as reduction in cell viability up to 100 uM by WST-1 assay relative to control; format: cell-based; details: human
[3] = Inhibition of Rho/MRTF/SRF pathway (unknown origin) expressed in HEK293T cells assessed as reduction in Galpha12-stimulated MRTF-selective SRE.L promoter-driven luciferase activity after overnight incubation by luminescence assay; format: cell-based, Homo sapiens
[4] = system: PC-3; experiment: Cytotoxicity against human PC3 cells assessed as reduction in cell viability up to 100 uM by WST-1 assay relative to control; format: cell-based
[5] = Half-life in CD-1 mouse liver microsomes at 1 uM in presence of NADPH by LC-MS/MS analysis; format: ADME, Microsome
[6] = system: Mus musculus; experiment: Antifibrotic activity in bleomycin-induced mouse model of dermal fibrosis assessed as decrease in dermal thickness administered daily via oral gavage for 14 days measured post-last dose by Masson's trichrome-staining based microscopic method; format: functional, organism-based
[7] = Half-life in CD-1 mouse at 15 mg/kg, iv by LC-MS/MS analysis; format: ADME, organism-based; details: in vivo
[8] = system: Mus musculus; experiment: Antifibrotic activity in bleomycin-induced mouse model of dermal fibrosis assessed as decrease in hydroxyproline content administered daily via oral gavage for 14 days measured post-last dose; format: functional, organism-based
[9] = species on record: Homo sapiens; experiment: Inhibition of Rho/MRTF/SRF pathway in human primary dermal fibroblasts assessed as reduction in LPA-stimulated CTGF mRNA expression preincubated for 48 hrs followed by LPA stimulation and measured after 1 hr by qPCR analysis
[10] = Cmax in CD-1 mouse at 15 mg/kg, iv by LC-MS/MS analysis; format: ADME, organism-based; design: dose 15 mg/kg, route intravenous; details: in vivo
[11] = Oral bioavailability in CD-1 mouse at 30 mg/kg by LC-MS/MS analysis; format: ADME, organism-based; details: in vivo
[12] = AUC in CD-1 mouse at 15 mg/kg, iv by LC-MS/MS analysis; format: ADME, organism-based; details: in vivo
[13] = Thermodynamic solubility of the compound; format: physicochemical; details: read-out: Therm_solubility
[14] = Cmax in CD-1 mouse at 30 mg/kg, po by LC-MS/MS analysis; format: ADME, organism-based; design: dose 30 mg/kg, route oral; details: in vivo
[15] = AUC in CD-1 mouse at 30 mg/kg, po by LC-MS/MS analysis; format: ADME, organism-based; details: in vivo
[16] = species on record: Homo sapiens; experiment: Inhibition of Rho/MRTF/SRF pathway in human primary dermal fibroblasts assessed as reduction in LPA-stimulated CTGF mRNA expression preincubated for 72 hrs followed by LPA stimulation and measured after 1 hr by qPCR analysis
[17] = Half-life in CD-1 mouse at 30 mg/kg, po by LC-MS/MS analysis; format: ADME, organism-based; details: in vivo
[18] = Clearance in CD-1 mouse at 15 mg/kg, iv by LC-MS/MS analysis; format: ADME, organism-based; details: in vivo

Compound	IC50 [1]	Activity [2]	IC50 [3]	Activity [4]	also measured
O=C(O)CCSc1nc(-c2ccccc2)cc(=O)[nH]1	> 100000 nM				
Cc1ccc(-c2nnc(SCCC(=O)O)o2)c(Cl)c1C		< 5%	0.02 nM		
O=C(O)CCCc1nnc(-c2ccc(Cl)cc2Cl)o1			> 100000 nM		
O=C(O)CCCSc1nnc(-c2ccccc2C(F)(F)F)o1		< 5%	10000 nM		
COc1ccc(-c2nnc(SCCC(=O)O)n2C)cc1	> 100000 nM				
c1ccc(-c2nnc(SCCC3OCCCO3)o2)cc1	> 100000 nM				
O=C(O)CCCCSc1nnc(-c2ccc(Cl)cc2Cl)o1				< 5%	
Cc1cc(Cl)c(-c2nnc(SCCC(=O)O)o2)cc1C		< 5%	0.23 nM		
O=C(O)CSc1nnc(-c2ccc(Cl)cc2Cl)o1				< 5%	
O=C(O)CCSc1nnc(-c2ccccc2Cl)o1	25 nM			< 5%	
COc1ccc(-c2nnc(SCCC(=O)O)o2)c(Cl)c1	2.6 nM			< 5%	
O=C(O)CCCSc1nnc(-c2ccc(-c3ccccc3)cc2Cl)o1		< 5%	25 nM		
COc1ccccc1-c1nnc(SCCC(=O)O)o1	3100 nM			< 5%	
O=C(O)CCCOc1nnc(-c2ccc(Cl)cc2Cl)o1			> 100000 nM		
Cc1cc(-c2nnc(SCCC(=O)O)o2)c(Cl)cc1Cl		< 5%	0.32 nM		
COc1ccc(-c2nnc(SCCCC(=O)O)o2)c(Cl)c1		< 5%	2 nM		
O=C(O)CCSc1nnc(-c2cccc(Cl)c2)o1	1500 nM			< 5%	
CC(C)(F)c1ccc(-c2nnc(SCCCC(=O)O)o2)c(Cl)c1		< 5%	0.5 nM		
Cc1cccc(-c2nnc(SCCC(=O)O)o2)c1	180 nM			< 5%	
O=C(O)CCCSc1nnc(-c2ccc(OC3CC3)cc2Cl)o1		< 5%	1.3 nM		t1/2 [5]: > 60 min
O=C(O)CCSc1nnc(-c2ccc(Cl)cc2Cl)o1	4 nM	< 5%	2 nM	< 5%	Activity [6]: Dose-dependent effect; t1/2 [7]: 2 h; Activity [8]: Dose-dependent effect; inhibition [9]: inactive; Cmax [10]: 88.5 µg/mL; bioavailability [11]: 67%; t1/2 [5]: > 60 min; AUC [12]: 47400 ng·h/mL; solubility thermodynamic [13]: 682 µM (≈ 218 µg/mL); Cmax [14]: 34000 ng/mL; AUC [15]: 63200 ng·h/mL; inhibition [16]: Dose-dependent effect; half-life [17]: 120 min; clearance [18]: 5.3 mL/min/kg
Cc1ccc(-c2nnc(SCCC(=O)O)o2)cc1	34 nM			< 5%	
CCCc1ccc(-c2nnc(SCCCC(=O)O)o2)c(Cl)c1		< 5%	< 0.0001 nM		
CC(C)c1ccc(-c2nnc(SCCCC(=O)O)o2)c(Cl)c1		< 5%	0.0007 nM		
O=C(O)CCSc1nnc(-c2ccccc2)o1	3500 nM			< 5%	
